Measurements from patent US20240368120A1 (Terns Pharmaceuticals, Inc., priority 2023, published 2024).

Target: T1, human GLP-1R receptor (Homo sapiens, UniProt P43220)
T1 construct: expressed in transfected cells
Experiment: GLP-1R low expression cell assay (cAMP TR-FRET, CHO-K1_hGLP-1Rlow_clone10 cells)
Type: cell-based
Settings: for EC50: cAMP TR-FRET, 30 min at 25° C.; for Emax: maximum activation relative to control GLP-1 peptide agonist
Protocol: Stable cell lines expressing high and low GLP-1R surface expression were generated in CHO-K1 cells transfected (Fugene 6) with a puromycin selectable DNA plasmid encoding human GLP-1R receptor (accession number: NM_002062.5) under control of an EF1A promoter. Transfected cells were seeded into 24-well plates (9,000 cells/well) containing complete medium and incubated in a humidified incubator at 37° C. with 5% carbon dioxide. After overnight incubation, medium was replaced with complete medium supplemented with puromycin (6 μg/mL) and refreshed every 2-3 days to select for stably transfected cells. Individual pools of selected cells were expanded prior to analysis for responsiveness to GLP-1 control peptide using a TR-FRET assay to detect cAMP (LANCE Ultra CAMP Assay, Perkin Elmer). Briefly, cells were collected in Versene solution, plated in 384-well plates (1,000 cells/well) and combined with serially diluted GLP-IR control peptide (10 nL) using an acoustic dispenser (ECHO). Plates were incubated for 30 minutes at 25° C. prior to the addition of EU-CAMP tracer (5 μL) and Ulight-anti-CAMP (5 μL) reagents to each well, followed by 15 minutes incubation at 25° C. TR-FRET signal was detected using an En Vision Multimode Plate Reader (excitation=320 nm; emission=615 and 655 nm). Dose-response curves were used to generate EC50 values as a measure of responsiveness to the GLP-IR control peptide. Selected cell lines were monitored for responsiveness over multiple passages to ensure stability. […] Briefly, GLP-IR expression was analyzed by flow cytometry using a fluorescein-labeled Exendin-4 peptide fluorescent probe (FLEX). Cells were harvested in Versene solution and washed 3-times with PBS+0.5% BSA before incubation with FLEX reagent (10 μM) for 2 hours at room temperature. After incubation, cells were washed 3-times in PBS+0.5% BSA before final resuspension in PBS prior to analysis by flow cytometry to measure FLEX mean fluorescence intensity (MFI) as a measure of GLP-IR expression on the cell surface.
For compound testing in the CHO-K1_hGLP-IRlow_clone10 cell line, cells were seeded in 384-well plates (1,000 cells/well). Test compounds were serially diluted in DMSO (10-point, 3-fold dilution), added to wells using an ECHO dispenser (10 nL/well) and plates were centrifuged for 1 min and agitated for 2 min at room temperature prior to 30-minute incubation at 25° C. After incubation, Eu-CAMP (5 μL) and Ulight-anti-cAMP (5 μL) reagents were added to each well, followed by centrifugation for 1 minute, agitation for 2 minutes at room temperature, and final incubation of the plates at 25° C. for 15 minutes. Plates were read using an EnVision microplate reader (excitation=320 nm; emission=615 and 655 nm). Dose-response curves were generated from duplicate wells based on percent activation calculated relative to a control GLP-1 peptide agonist that was run in parallel. EC50 values were determined by fitting percent activation as a function of compound concentration using the Hill equation (XLfit).
The compounds tested were compound samples prepared according to the General Procedures described in the Examples section.

T1 sequence (P43220 24-463): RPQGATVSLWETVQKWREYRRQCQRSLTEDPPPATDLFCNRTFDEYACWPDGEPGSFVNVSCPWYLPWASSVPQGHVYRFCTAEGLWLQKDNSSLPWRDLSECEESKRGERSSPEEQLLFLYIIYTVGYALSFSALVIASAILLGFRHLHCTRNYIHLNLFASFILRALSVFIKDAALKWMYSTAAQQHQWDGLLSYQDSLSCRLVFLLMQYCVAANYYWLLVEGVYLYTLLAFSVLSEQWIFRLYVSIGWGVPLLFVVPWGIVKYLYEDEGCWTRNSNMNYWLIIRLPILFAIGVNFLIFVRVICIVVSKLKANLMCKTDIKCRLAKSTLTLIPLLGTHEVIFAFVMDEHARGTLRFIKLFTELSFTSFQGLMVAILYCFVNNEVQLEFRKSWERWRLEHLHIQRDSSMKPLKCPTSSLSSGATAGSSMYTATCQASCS

Row | SMILES | EC50 | Emax
1 | N#Cc1ccc(COc2cccc(C3CCN(Cc4nc5c(O)cc(C(=O)O)cc5n4Cc4cncs4)CC3)n2)c(F)c1 [Compound 82, 2-((4-(6-((4-Cyano-2-fluorobenzyl)oxy)pyridin-2-yl)piperidin-1-yl)methyl)-4-hydroxy-1-(thiazol-5-ylmethyl)-1H-benzo[d]imidazole-6-carboxylic acid] | < 10 nM | > 85%
2 | Cn1c(CN2CCC(c3cccc(OCc4ccc(C#N)cc4F)c3Cl)CC2)nc2c(OC(F)F)cc(C(=O)O)cc21 [Compound 179, 2-((4-(2-Chloro-3-((4-cyano-2-fluorobenzyl)oxy)phenyl)piperidin-1-yl)methyl)-4-(difluoromethoxy)-1-methyl-1H-benzo[d]imidazole-6-carboxylic acid] | > 1000 nM | 25 to 50%
3 | COc1nc(C(=O)O)cc2c1nc(CN1CCC(c3cccc(OCc4ccc(Cl)cc4F)n3)CC1)n2C [Compound 380, 2-((4-(6-((4-Chloro-2-fluorobenzyl)oxy)pyridin-2-yl)piperidin-1-yl)methyl)-4-methoxy-1-methyl-1H-imidazo[4,5-c]pyridine-6-carboxylic acid] | 10 to 100 nM | > 85%
4 | CO[C@H]1C[C@H](Oc2cc(C(=O)O)cc3c2nc(CN2CCC(c4cccc(OCc5ccc(Cl)cc5F)n4)CC2)n3C)C1 [Compound 325, 2-((4-(6-((4-Chloro-2-fluorobenzyl)oxy)pyridin-2-yl)piperidin-1-yl)methyl)-4-((1r,3r)-3-methoxycyclobutoxy)-1-methyl-1H-benzo[d]imidazole-6-carboxylic acid] | 100 to 1000 nM | > 85%
5 | O=C(O)c1ccc2nc(CN3CCC(c4cccc(OCc5ccc(Cl)cc5F)n4)CC3)[nH]c2c1OC(F)F [Compound 210, 2-((4-(6-((4-Chloro-2-fluorobenzyl)oxy)pyridin-2-yl)piperidin-1-yl)methyl)-7-(difluoromethoxy)-1H-benzo[d]imidazole-6-carboxylic acid] | > 1000 nM | 25 to 50%
6 | CCOc1cc(-c2cc(=O)[nH]o2)cc2c1nc(CN1CCC(c3cccc(OCc4ccc(C#N)cc4F)n3)CC1)n2C [Compound 384, 4-(((6-(1-((4-Ethoxy-1-methyl-6-(3-oxo-2,3-dihydroisoxazol-5-yl)-1H-benzo[d]imidazol-2-yl)methyl)piperidin-4-yl)pyridin-2-yl)oxy)methyl)-3-fluorobenzonitrile] | 10 to 100 nM | > 85%
7 | Cn1c(CN2CCC(c3cccc(OCc4ccc(Cl)cc4F)n3)CC2)nc2c(OC(F)F)cc(C(=O)O)nc21 [Compound 328, 2-((4-(6-((4-Chloro-2-fluorobenzyl)oxy)pyridin-2-yl)piperidin-1-yl)methyl)-7-(difluoromethoxy)-3-methyl-3H-imidazo[4,5-b]pyridine-5-carboxylic acid] | 10 to 100 nM | > 85%
8 | Cn1c(CN2CCC(c3cccc(OCc4ccc(C(F)(F)F)cc4F)n3)CC2)nc2c(OC(F)F)cc(C(=O)O)cc21 [Compound 223] | 10 to 100 nM | > 85%
9 | COCCOc1cc(C(=O)O)cc2c1nc(CN1CCC(c3cccc4c3O[C@@](C)(c3ccc(Cl)cn3)O4)CC1)n2Cc1cncs1 [Compound 2, (S)-2-((4-(2-(5-Chloropyridin-2-yl)-2-methylbenzo[d][1,3]dioxol-4-yl)piperidin-1-yl)methyl)-4-(2-methoxyethoxy)-1-(thiazol-5-ylmethyl)-1H-benzo[d]imidazole-6-carboxylic acid] | < 10 nM | > 85%
10 | Cn1c(CN2CCC(c3cccc(OCc4ccc(Cl)cc4F)n3)CC2)nc2c(OCC(F)(F)F)cc(C(=O)O)cc21 [Compound 224, 2-((4-(6-((4-Chloro-2-fluorobenzyl)oxy)pyridin-2-yl)piperidin-1-yl)methyl)-1-methyl-4-(2,2,2-trifluoroethoxy)-1H-benzo[d]imidazole-6-carboxylic acid] | 10 to 100 nM | > 85%
11 | C[C@]1(c2ccc(Cl)cn2)Oc2cccc(C3CCN(Cc4nc5c6c(c(C(=O)O)cc5n4C[C@@H]4CCO4)OCCO6)CC3)c2O1 [Compound 93, 2-((4-((S)-2-(5-Chloropyridin-2-yl)-2-methylbenzo[d][1,3]dioxol-4-yl)piperidin-1-yl)methyl)-3-(((S)-oxetan-2-yl)methyl)-7,8-dihydro-3H-[1,4]dioxino[2′,3′:3,4]benzo[1,2-d]imidazole-5-carboxylic acid] | < 10 nM | > 85%
12 | Cn1c(CN2CCC(c3cccc(OCc4ccc(C5CC5)cc4F)n3)CC2)nc2c(OC(F)F)cc(C(=O)O)cc21 [Compound 365, 2-((4-(6-((4-Cyclopropyl-2-fluorobenzyl)oxy)pyridin-2-yl)piperidin-1-yl)methyl)-4-(difluoromethoxy)-1-methyl-1H-benzo[d]imidazole-6-carboxylic acid] | 10 to 100 nM | > 85%
13 | Cn1c(CN2CCC(c3cccc(OCc4ccc(Cl)c5c4OCC5)n3)CC2)nc2c(OC(F)F)cc(C(=O)O)cc21 [Compound 331, 2-((4-(6-((4-Chloro-2,3-dihydrobenzofuran-7-yl)methoxy)pyridin-2-yl)piperidin-1-yl)methyl)-4-(difluoromethoxy)-1-methyl-1H-benzo[d]imidazole-6-carboxylic acid] | 10 to 100 nM | > 85%
14 | COc1cc(C(=O)O)c(F)c2c1nc(CN1CCC(c3ccc(F)c(OCc4ccc(C#N)cc4F)c3)CC1)n2C [Compound 339, 2-((4-(3-((4-Cyano-2-fluorobenzyl)oxy)-4-fluorophenyl)piperidin-1-yl)methyl)-7-fluoro-4-methoxy-1-methyl-1H-benzo[d]imidazole-6-carboxylic acid] | 100 to 1000 nM | > 85%
15 | Cn1c(CN2CCC(c3cccc(OCc4ccc(C5CCCO5)cc4F)n3)CC2)nc2c(OC(F)F)cc(C(=O)O)cc21 (stereo not shown) [Compound 177, 4-(Difluoromethoxy)-2-((4-(6-((2-fluoro-4-(tetrahydrofuran-2-yl)benzyl)oxy)pyridin-2-yl)piperidin-1-yl)methyl)-1-methyl-1H-benzo[d]imidazole-6-carboxylic acid] | > 1000 nM | 50 to 85%
16 | O=C(O)c1cc(OC(F)F)c2nc(CN3CCC(c4cccc(OCc5ccc(Cl)cc5F)n4)CC3)n(C3CC3)c2c1 [Compound 199, 2-((4-(6-((4-Chloro-2-fluorobenzyl)oxy)pyridin-2-yl)piperidin-1-yl)methyl)-1-cyclopropyl-4-(difluoromethoxy)-1H-benzo[d]imidazole-6-carboxylic acid] | 10 to 100 nM | > 85%
17 | Cn1c(CN2CCC(c3cccc(OCc4ccc(Cl)cc4F)n3)CC2)nc2c(OC(F)F)cc(-c3noc(=O)[nH]3)cc21 [Compound 236, 3-(2-((4-(6-((4-Chloro-2-fluorobenzyl)oxy)pyridin-2-yl)piperidin-1-yl)methyl)-4-(difluoromethoxy)-1-methyl-1H-benzo[d]imidazol-6-yl)-1,2,4-oxadiazol-5 (4H)-one] | 100 to 1000 nM | 50 to 85%
18 | C[C@@H](c1nc2c(OC(F)F)cc(C(=O)O)cc2n1C)N1CCC(c2cccc(OCc3ccc(C#N)cc3F)n2)CC1 [Compound 119, (S)-2-(1-(4-(6-((4-Cyano-2-fluorobenzyl)oxy)pyridin-2-yl)piperidin-1-yl)ethyl)-4-(difluoromethoxy)-1-methyl-1H-benzo[d]imidazole-6-carboxylic acid] | 10 to 100 nM | 50 to 85%
19 | Cn1c(CN2CCC(c3cccc(OCc4ccc(C#N)cc4F)n3)CC2)nc2c(OCCF)cc(C(=O)O)cc21 [Compound 183, 2-((4-(6-((4-Cyano-2-fluorobenzyl)oxy)pyridin-2-yl)piperidin-1-yl)methyl)-4-(2-fluoroethoxy)-1-methyl-1H-benzo[d]imidazole-6-carboxylic acid] | < 10 nM | > 85%
20 | Cn1c(CN2CCC(c3cccc(OCc4ccc(Cl)cc4F)n3)CC2)nc2c(OC(F)F)c(C(=O)O)ccc21 [Compound 220, 2-((4-(6-((4-Chloro-2-fluorobenzyl)oxy)pyridin-2-yl)piperidin-1-yl)methyl)-4-(difluoromethoxy)-1-methyl-1H-benzo[d]imidazole-5-carboxylic acid] | > 1000 nM | > 85%
